Results published in the kinase profiling compilation of Christmann-Franck et al. (2016).

Key:
Assay in all cases: KINOMEscan competition binding
Conditions in all cases: compound 10.0 µM
[1] = system: ABL1 (human), P00519 [F317I]
[2] = system: ABL1 (human), P00519 [Q252H]
[3] = system: ABL1 (human), P00519 [T315I]
ADCK3 (human) = ADCK3 (human) (UniProt Q8NI60)
AKT2 (human) = AKT2 (human) (UniProt P31751)
AURKB (human) = AURKB (human) (UniProt Q96GD4)
BRAF (human) = BRAF (human) (UniProt P15056)
CAMK2D (human) = CAMK2D (human) (UniProt Q13557)
CAMKK1 (human) = CAMKK1 (human) (UniProt Q8N5S9)
CDK15 (human) = CDK15 (human) (UniProt Q96Q40)
CDKL5 (human) = CDKL5 (human) (UniProt O76039)
CSNK1E (human) = CSNK1E (human) (UniProt P49674)
DDR2 (human) = DDR2 (human) (UniProt Q16832)
EPHA8 (human) = EPHA8 (human) (UniProt P29322)
EPHB3 (human) = EPHB3 (human) (UniProt P54753)
ERBB3 (human) = ERBB3 (human) (UniProt P21860)
[4] = system: FGFR3 (human), P22607 [G697C]
FLT1 (human) = FLT1 (human) (UniProt P17948)
HIPK4 (human) = HIPK4 (human) (UniProt Q8NE63)
[5] = biological target: JAK1 JH2 pseudokinase (human) (UniProt P23458)
MAP3K5 (human) = MAP3K5 (human) (UniProt Q99683)
MAPK10 (human) = MAPK10 (human) (UniProt P53779)
MST1R (human) = MST1R (human) (UniProt Q04912)
MYLK4 (human) = MYLK4 (human) (UniProt Q86YV6)
NEK1 (human) = NEK1 (human) (UniProt Q96PY6)
NEK2 (human) = NEK2 (human) (UniProt P51955)
NEK5 (human) = NEK5 (human) (UniProt Q6P3R8)
NTRK2 (human) = NTRK2 (human) (UniProt Q16620)
PHKG2 (human) = PHKG2 (human) (UniProt P15735)
PLK1 (human) = PLK1 (human) (UniProt P53350)
PRKAA2 (human) = PRKAA2 (human) (UniProt P54646)
PRKCE (human) = PRKCE (human) (UniProt Q02156)
PRKD1 (human) = PRKD1 (human) (UniProt Q15139)
PRKG2 (human) = PRKG2 (human) (UniProt Q13237)
PTK6 (human) = PTK6 (human) (UniProt Q13882)
[6] = system: RET (human), P07949 [V804L]
SRPK2 (human) = SRPK2 (human) (UniProt P78362)
STK10 (human) = STK10 (human) (UniProt O94804)
STK3 (human) = STK3 (human) (UniProt Q13188)
TIE1 (human) = TIE1 (human) (UniProt P35590)
TYRO3 (human) = TYRO3 (human) (UniProt Q06418)
YSK4 (human) = YSK4 (human) (UniProt Q56UN5)

DDR2 (human), sequence (Q16832 whole entry, looked up): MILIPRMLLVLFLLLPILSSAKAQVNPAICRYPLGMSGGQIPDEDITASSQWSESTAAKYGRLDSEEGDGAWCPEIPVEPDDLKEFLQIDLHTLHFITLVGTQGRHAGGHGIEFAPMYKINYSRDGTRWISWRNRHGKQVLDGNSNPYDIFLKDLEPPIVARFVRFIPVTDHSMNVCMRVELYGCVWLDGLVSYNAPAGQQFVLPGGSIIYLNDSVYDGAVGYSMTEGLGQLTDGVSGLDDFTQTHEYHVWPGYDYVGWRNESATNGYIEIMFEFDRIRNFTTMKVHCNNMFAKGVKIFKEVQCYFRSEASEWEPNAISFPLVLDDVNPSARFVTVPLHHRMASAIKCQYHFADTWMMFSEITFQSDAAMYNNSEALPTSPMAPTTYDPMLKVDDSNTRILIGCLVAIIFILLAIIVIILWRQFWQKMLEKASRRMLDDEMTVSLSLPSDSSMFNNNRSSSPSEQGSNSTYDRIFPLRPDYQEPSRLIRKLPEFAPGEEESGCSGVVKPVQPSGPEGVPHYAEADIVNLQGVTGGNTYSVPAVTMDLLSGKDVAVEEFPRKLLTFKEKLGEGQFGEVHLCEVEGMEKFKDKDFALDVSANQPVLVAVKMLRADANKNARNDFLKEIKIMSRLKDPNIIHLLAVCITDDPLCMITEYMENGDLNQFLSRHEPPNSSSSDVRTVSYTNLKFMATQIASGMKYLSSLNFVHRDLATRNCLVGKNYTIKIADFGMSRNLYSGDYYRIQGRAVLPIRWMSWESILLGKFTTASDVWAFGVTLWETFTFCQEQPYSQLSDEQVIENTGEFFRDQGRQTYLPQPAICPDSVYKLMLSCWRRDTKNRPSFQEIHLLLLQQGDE
EPHB3 (human), sequence (P54753 whole entry, looked up): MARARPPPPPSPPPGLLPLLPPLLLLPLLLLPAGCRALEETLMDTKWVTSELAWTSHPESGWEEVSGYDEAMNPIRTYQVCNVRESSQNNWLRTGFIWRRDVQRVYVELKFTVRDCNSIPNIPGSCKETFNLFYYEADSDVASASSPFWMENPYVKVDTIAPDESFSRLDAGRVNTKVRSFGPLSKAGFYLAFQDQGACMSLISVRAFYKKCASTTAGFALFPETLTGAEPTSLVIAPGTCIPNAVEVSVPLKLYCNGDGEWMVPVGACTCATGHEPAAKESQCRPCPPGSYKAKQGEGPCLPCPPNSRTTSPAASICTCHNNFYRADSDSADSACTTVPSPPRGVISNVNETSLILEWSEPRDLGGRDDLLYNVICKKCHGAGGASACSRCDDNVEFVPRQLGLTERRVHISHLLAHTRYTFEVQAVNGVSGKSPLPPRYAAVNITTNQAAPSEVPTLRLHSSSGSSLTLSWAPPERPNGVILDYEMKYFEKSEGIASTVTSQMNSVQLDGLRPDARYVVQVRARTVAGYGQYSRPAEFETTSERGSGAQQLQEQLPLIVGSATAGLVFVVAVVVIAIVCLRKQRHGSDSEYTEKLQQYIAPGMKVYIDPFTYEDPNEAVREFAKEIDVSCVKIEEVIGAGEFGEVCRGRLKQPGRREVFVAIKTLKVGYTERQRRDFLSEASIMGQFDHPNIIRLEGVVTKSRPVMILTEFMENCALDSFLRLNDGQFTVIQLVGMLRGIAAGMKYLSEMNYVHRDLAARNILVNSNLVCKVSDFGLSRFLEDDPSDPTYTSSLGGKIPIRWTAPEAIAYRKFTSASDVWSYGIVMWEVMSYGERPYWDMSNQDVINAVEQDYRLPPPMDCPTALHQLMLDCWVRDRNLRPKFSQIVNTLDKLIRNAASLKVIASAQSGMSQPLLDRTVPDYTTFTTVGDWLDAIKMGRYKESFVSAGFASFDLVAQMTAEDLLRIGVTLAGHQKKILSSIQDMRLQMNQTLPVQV
CDK15 (human), sequence (Q96Q40 whole entry, looked up): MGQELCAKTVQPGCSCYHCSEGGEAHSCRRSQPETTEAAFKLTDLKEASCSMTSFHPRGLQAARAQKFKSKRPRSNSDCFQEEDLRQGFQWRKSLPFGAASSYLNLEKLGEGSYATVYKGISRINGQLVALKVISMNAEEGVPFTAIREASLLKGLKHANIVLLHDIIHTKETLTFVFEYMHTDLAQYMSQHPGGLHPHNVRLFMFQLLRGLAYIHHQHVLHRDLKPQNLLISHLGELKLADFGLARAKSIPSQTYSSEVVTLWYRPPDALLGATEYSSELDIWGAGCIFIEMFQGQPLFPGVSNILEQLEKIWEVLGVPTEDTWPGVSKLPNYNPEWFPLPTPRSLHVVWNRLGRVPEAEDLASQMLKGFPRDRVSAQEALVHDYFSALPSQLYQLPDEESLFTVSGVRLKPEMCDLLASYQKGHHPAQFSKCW
NEK5 (human), sequence (Q6P3R8 whole entry, looked up): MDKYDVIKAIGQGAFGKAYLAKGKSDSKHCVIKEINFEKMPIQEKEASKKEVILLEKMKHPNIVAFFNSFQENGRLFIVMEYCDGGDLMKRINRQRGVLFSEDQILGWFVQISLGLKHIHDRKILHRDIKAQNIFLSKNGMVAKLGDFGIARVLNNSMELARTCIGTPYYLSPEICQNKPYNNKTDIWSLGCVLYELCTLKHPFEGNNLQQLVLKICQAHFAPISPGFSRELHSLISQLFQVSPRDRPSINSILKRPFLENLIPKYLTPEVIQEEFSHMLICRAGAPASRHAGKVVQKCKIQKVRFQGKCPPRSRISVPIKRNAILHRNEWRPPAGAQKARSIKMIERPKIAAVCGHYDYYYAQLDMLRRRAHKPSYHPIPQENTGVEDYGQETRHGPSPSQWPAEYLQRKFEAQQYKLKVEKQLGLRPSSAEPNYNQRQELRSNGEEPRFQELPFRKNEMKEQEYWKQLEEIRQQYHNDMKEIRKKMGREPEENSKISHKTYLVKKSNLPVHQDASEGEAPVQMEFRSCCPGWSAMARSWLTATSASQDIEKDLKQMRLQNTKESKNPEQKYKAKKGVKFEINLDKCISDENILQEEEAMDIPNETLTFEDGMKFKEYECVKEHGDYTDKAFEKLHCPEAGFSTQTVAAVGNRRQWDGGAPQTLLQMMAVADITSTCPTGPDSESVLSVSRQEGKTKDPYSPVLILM
MST1R (human), sequence (Q04912 whole entry, looked up): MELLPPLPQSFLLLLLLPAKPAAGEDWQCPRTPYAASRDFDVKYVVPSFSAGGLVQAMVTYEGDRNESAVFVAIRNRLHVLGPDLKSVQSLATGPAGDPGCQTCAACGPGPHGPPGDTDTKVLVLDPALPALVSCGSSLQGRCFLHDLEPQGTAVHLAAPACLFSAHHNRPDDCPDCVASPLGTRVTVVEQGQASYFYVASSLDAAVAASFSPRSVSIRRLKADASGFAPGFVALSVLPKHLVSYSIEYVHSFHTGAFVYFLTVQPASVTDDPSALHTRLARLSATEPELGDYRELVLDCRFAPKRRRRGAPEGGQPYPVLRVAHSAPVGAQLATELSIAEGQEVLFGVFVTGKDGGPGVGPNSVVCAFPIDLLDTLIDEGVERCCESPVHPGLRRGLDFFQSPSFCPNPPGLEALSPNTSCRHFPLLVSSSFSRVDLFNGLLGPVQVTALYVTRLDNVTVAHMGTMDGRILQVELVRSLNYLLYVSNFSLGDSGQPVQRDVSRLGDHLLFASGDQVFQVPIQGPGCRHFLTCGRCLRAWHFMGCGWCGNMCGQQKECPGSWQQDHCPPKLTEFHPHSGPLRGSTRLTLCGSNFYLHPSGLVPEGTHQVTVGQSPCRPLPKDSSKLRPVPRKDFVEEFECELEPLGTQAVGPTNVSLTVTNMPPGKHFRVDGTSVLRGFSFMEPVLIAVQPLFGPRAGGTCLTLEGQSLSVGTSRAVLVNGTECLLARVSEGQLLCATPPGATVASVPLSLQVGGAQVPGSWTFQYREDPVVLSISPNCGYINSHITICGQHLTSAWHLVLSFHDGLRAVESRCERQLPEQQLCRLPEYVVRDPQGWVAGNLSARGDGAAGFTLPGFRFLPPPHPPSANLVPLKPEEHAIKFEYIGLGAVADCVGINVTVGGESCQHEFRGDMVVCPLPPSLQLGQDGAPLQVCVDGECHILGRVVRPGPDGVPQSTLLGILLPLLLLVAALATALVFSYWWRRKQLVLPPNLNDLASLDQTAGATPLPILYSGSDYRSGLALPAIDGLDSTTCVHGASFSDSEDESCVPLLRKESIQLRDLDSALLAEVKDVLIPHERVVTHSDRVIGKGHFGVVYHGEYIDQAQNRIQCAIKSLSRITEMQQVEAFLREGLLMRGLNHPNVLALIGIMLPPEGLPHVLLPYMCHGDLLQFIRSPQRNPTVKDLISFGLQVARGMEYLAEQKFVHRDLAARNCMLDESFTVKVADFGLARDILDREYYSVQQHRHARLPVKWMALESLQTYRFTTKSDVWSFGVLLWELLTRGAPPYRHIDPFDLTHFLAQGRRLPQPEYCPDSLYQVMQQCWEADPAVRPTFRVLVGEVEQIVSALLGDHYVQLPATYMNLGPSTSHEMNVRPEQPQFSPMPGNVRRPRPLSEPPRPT
PRKAA2 (human), sequence (P54646 whole entry, looked up): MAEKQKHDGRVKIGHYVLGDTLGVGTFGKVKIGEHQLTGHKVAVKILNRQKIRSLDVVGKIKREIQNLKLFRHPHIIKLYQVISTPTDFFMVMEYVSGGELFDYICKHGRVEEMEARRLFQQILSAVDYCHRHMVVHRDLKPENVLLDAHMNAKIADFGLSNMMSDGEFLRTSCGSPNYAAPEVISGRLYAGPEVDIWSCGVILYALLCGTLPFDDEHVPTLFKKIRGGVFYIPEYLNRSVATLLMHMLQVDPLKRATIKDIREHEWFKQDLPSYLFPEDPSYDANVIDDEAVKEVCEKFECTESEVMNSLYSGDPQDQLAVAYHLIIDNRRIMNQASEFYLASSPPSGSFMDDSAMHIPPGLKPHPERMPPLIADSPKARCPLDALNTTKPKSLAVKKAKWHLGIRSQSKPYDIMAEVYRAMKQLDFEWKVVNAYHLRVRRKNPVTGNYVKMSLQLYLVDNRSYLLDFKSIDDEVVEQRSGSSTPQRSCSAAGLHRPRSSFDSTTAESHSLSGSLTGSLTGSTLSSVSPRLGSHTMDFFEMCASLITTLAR

kinase still bound, per cent of control [1]: 100%
kinase still bound, per cent of control [2]: 100%
kinase still bound, per cent of control [3]: 80%
kinase still bound, per cent of control (ADCK3 (human)): 100%
kinase still bound, per cent of control (AKT2 (human)): 100%
kinase still bound, per cent of control (AURKB (human)): 96%
kinase still bound, per cent of control (BRAF (human)): 80%
kinase still bound, per cent of control (CAMK2D (human)): 56%
kinase still bound, per cent of control (CAMKK1 (human)): 68%
kinase still bound, per cent of control (CDK15 (human)): 66%
kinase still bound, per cent of control (CDKL5 (human)): 100%
kinase still bound, per cent of control (CSNK1E (human)): 49%
kinase still bound, per cent of control (DDR2 (human)): 84%
kinase still bound, per cent of control (EPHA8 (human)): 100%
kinase still bound, per cent of control (EPHB3 (human)): 100%
kinase still bound, per cent of control (ERBB3 (human)): 57%
kinase still bound, per cent of control [4]: 100%
kinase still bound, per cent of control (FLT1 (human)): 100%
kinase still bound, per cent of control (HIPK4 (human)): 14%
kinase still bound, per cent of control [5]: 82%
kinase still bound, per cent of control (MAP3K5 (human)): 100%
kinase still bound, per cent of control (MAPK10 (human)): 62%
kinase still bound, per cent of control (MST1R (human)): 100%
kinase still bound, per cent of control (MYLK4 (human)): 38%
kinase still bound, per cent of control (NEK1 (human)): 86%
kinase still bound, per cent of control (NEK2 (human)): 85%
kinase still bound, per cent of control (NEK5 (human)): 99%
kinase still bound, per cent of control (NTRK2 (human)): 70%
kinase still bound, per cent of control (PHKG2 (human)): 80%
kinase still bound, per cent of control (PLK1 (human)): 85%
kinase still bound, per cent of control (PRKAA2 (human)): 52%
kinase still bound, per cent of control (PRKCE (human)): 94%
kinase still bound, per cent of control (PRKD1 (human)): 100%
kinase still bound, per cent of control (PRKG2 (human)): 73%
kinase still bound, per cent of control (PTK6 (human)): 100%
kinase still bound, per cent of control [6]: 100%
kinase still bound, per cent of control (SRPK2 (human)): 83%
kinase still bound, per cent of control (STK10 (human)): 97%
kinase still bound, per cent of control (STK3 (human)): 9.9%
kinase still bound, per cent of control (TIE1 (human)): 99%
kinase still bound, per cent of control (TYRO3 (human)): 100%
kinase still bound, per cent of control (YSK4 (human)): 12%
SMILES: Cn1cc(C2=C(c3ccc(Cl)cc3Cl)C(=O)NC2=O)c2ccccc21
